Experimental data taken from article PMC9794991, “Evaluation of analogs of mutacin 1140 in systemic and cutaneous methicillin-resistant Staphylococcus aureus infection models in mice” (Frontiers in Microbiology, 2022).
In brackets after ≈: the same amount, converted by molar mass. Several values for one entry are separate records, joined by “and”; a condition that tells them apart may be missing. Equal values may be shown once. Where a name gives a salt, the structure may show the parent alone. Read-outs that look alike come from different tables or passages of the source.

Legend:
[1] = tested on: S. aureus ATCC TCH1516 skin infection; test: Topical treatment of incision MRSA skin infection (Trial 1); assay type: in vivo, BALB/c mice; conditions: for Group mean (±SE) of log CFU/infection site: 10 mg/kg/day topical, twice daily for 6 days from 24 h post-infection, n = 6, vehicle control 5.33 ± 0.64
Method: Trial 1: In this trial, the infection model was performed following methods that were previously reported ([Kugelberg et al., 2005]; [Guo et al., 2013]; [Simonetti et al., 2020]). […] Seven groups (n = 6 mice/group) were acclimatized to the environment for at least 7 days before the start of the experiment. Once the hair on the dorsum of the mice was shaved, a 1 cm incision was made and a 50 μl suspension of S. aureus ATCC TCH1516 in PBS, containing 2 × 10^7 CFUs, was applied directly to the incision. Mice were housed individually until inoculum dried at the incision site (Day (D) 0). Approximately 24 h later (D1), treatment was applied topically twice daily for 6 days. […] Another group received the no-drug vehicle control (0.6% noble agar in citrate buffer). Weights of mice were measured at least once per day, while behavior and the wounds were monitored multiple times per day. Mice were sacrificed 1 day after the last topical treatment (D7). Dermal tissues at the infected sites were sampled and homogenized in sterile PBS. The homogenates were serially diluted and plated on THyex agar for determining CFUs.

[2] = tested on: S. aureus ATCC 33591 (MRSA); test: MIC in broth (CLSI M07-A8) against MRSA 33591; assay type: cell-based, Staphylococcus aureus
Method: (§1) Preparation of the antimicrobial agent and bacterial inoculum for MICs was performed by following the method described by the Clinical and Laboratory Standards Institute (CLSI; M07-A8; [CLSI, 2018]) and as previously reported by our group ([Chen et al., 2013]; [Escano et al., 2017]; [Geng and Smith, 2018]). […] A single colony from an overnight culture of S. aureus was inoculated in 10 ml of THyex broth (30 g/L Todd Hewitt broth, 3 g/L yeast extract). The inoculum was placed in a shaking incubator at 37°C and 280 rpm and grown to an OD600 of 0.6–0.8. The culture broth was then diluted to an OD600 of 0.132, after which a 20-fold dilution in fresh broth was performed resulting in a ~5 × 10^5 CFU/ml cell density. Mu1140 and Mu1140 analogs were solubilized in dimethyl sulfoxide (DMSO) at a concentration of 1 mg/ml as the stock solution. […] The same volume of DMSO was added to all test samples including the no-drug control. The cultures were placed in a shaking incubator at 37°C and 200 rpm (Stuart orbital incubator SI500). A 100 μl sample from each culture was taken at each time point of 0, 0.25, 0.5, 0.75, 1, 1.5, 2, 4, 8, 18, and 24 h and was serially diluted in fresh medium before being spread on THyex agar plates (30 g/L Todd Hewitt broth, 3 g/L yeast extract, 15 g/L agar) for determining the CFUs. The plates were allowed to grow for 24 h at 37°C before the colony-forming units (CFUs) were counted. The CFU/ml for each time-point at each drug concentration was determined using at least two independent cultures. Plates having 30 to 300 colonies were used for CFU measurements.

[3] = tested on: S. aureus ATCC33591 skin infection; test: Subcutaneous treatment of subcutaneous MRSA skin infection (Trial 2); assay type: in vivo, BALB/c mice; conditions: three times per day for 3 days from 48 h post-infection, n = 8
Method: Trial 2: In this trial, the infection model was performed following methods that were previously reported ([Guo et al., 2013]; [Dejani et al., 2016]). […] Mice were acclimatized to the environment for at least 7 days before initiating experiments. After shaving the hair on the dorsum of the mice, a 50 μl suspension of S. aureus ATCC33591 in PBS, containing 1.5 × 10^7 CFUs, was injected subq (D0). As noted in trial 1, no bleeding was observed during all injections. […] Mice were separated into four groups (n = 8 for treatment and no-drug vehicle control groups; D2). […] The last group received the no-drug vehicle control (sterile water with 20% DMSO). Treatments were administered three times per day to the mice through a 3-point subq injection around the scab with the needle pointed toward the center of the wound. Weights of mice were measured at least once per day, while behavior and the wound sites were monitored multiple times per day. Mice were sacrificed approximately 24-h after the last subq treatment (D6). Dermal tissues at the infected sites were sampled and homogenized in sterile PBS. The homogenates were serially diluted and plated on THyex agar for determining CFUs.

[4] = tested on: MRSA (S. aureus ATCC 33591) systemic infection; test: In vivo MRSA systemic infection model (survival); conditions: single 10 mg/kg i.v. dose 1 h post-infection
Method: The vehicle (saline with 15% DMSO) served as the no-drug control group of mice. Each mouse was monitored every 4 h during the first 2 days post-infection (day 0 to day 2), and every 8 h from day 2 to day 5.

[5] = tested on: S. aureus ATCC33591 skin infection; test: Intravenous treatment of an in vivo MRSA acute skin infection; parameters: species or system BALB/c mice
Method: Mice were acclimatized to the environment for at least 7 days before initiating experiments. After shaving the hair on the dorsum of the mice, a 50 μl suspension of S. aureus ATCC33591 in PBS, containing 1.5 × 10^7 CFUs, was injected subcutaneously (subq). No bleeding was observed during all injections. […] Mice were separated into four groups (n = 8 for the treatment groups and n = 6 for the control). […] The last group received the no-drug vehicle control (PBS with 5% DMSO). Weights of mice were measured at least once per day, while behavior and the wounds were monitored multiple times per day. Mice were sacrificed approximately 24-h after the last i.v. treatment (Day 6; D6). Dermal tissues at the infected sites were sampled and homogenized in sterile PBS. The homogenates were serially diluted and plated on THyex agar for determining CFUs.

clinical MRSA isolates = test: MIC in broth against a panel of clinical MRSA isolates; assay type: cell-based; conditions: Staphylococcus aureus
S. aureus ATCC 33591 = test: Time-kill study (kill kinetics); assay type: cell-based, Staphylococcus aureus
Method: as §1

[6] = Staphylococcus aureus, MRSA 33591, in broth, read-out: MIC
[7] = 10 mg/kg/day i.v. for 5 days, n = 8

CC(=O)O[C@H]1C[C@@]2(C)[C@@H](C[C@@H](O)[C@H]3[C@@]4(C)CC[C@@H](O)[C@@H](C)[C@@H]4CC[C@@]32C)/C1=C(\CCC=C(C)C)C(=O)O [Fusidic acid]
log reduction in bacterial load compared to the vehicle control group ([1]; 10 mg/kg/day topical for 6 days, not statistically significant): 2.17 log | Group mean (±SE) of log CFU/infection site [1]: 3.16 ± 0.50 log CFU/infection site | Group mean (±SE) of log CFU/infection site ([1]; listed as fusidic acid): 3.16 log CFU/infection site | MIC [2, 6]: 1 µg/mL (≈ 1.94 µM)

CC(=O)NC[C@H]1CN(c2ccc(N3CCOCC3)c(F)c2)C(=O)O1 [Linezolid, linezolid]
log reduction in CFUs (mean difference to vehicle control) ([3]; 75 mg/kg/day subq): 0.6 log | log reduction in CFUs (mean difference to vehicle control) ([3]; 75 mg/kg/day subq, listed as linezolid): 0.60 log | MIC [2, 6]: 1 µg/mL (≈ 2.96 µM)

CN[C@H](CC(C)C)C(=O)N[C@H]1C(=O)N[C@@H](CC(N)=O)C(=O)N[C@H]2C(=O)N[C@H]3C(=O)N[C@H](C(=O)N[C@H](C(=O)O)c4cc(O)cc(O)c4-c4cc3ccc4O)[C@H](O)c3ccc(c(Cl)c3)Oc3cc2cc(c3O[C@@H]2O[C@H](CO)[C@@H](O)[C@H](O)[C@H]2O[C@H]2C[C@](C)(N)[C@H](O)[C@H](C)O2)Oc2ccc(cc2Cl)[C@H]1O [Vancomycin, Vancomycin hydrochloride]
survival at 12 h post-infection [4]: 75.0% | survival at 24 h post-infection [4]: 50% | effect on bacterial load at the skin lesion site [5, 7]: did not have any significant effect on the bacterial load | effect on bacterial load at the skin lesion site ([5]; 10 mg/kg/day i.v. for 5 days, n = 8, listed as vancomycin): did not show any statistical significance to vehicle control | MIC (clinical MRSA isolates; MRSA / USA300, strain USA300, in broth): 2 µg/mL | MIC (clinical MRSA isolates; MRSA, strain 602, in broth): 2 µg/mL | MIC (clinical MRSA isolates; MRSA, strain 611, in broth): 2 µg/mL | MIC (clinical MRSA isolates; MRSA, strain 616, in broth): 2 µg/mL | MIC (clinical MRSA isolates; MRSA, strain 631, in broth): 2 µg/mL | MIC (clinical MRSA isolates; MRSA, strain 640, in broth): 1 µg/mL | MIC (clinical MRSA isolates; MRSA, strain 641, in broth): 2 µg/mL | MIC (clinical MRSA isolates; MRSA, strain 644, in broth): 2 µg/mL | MIC (clinical MRSA isolates; MRSA, strain 30476, in broth): 2 µg/mL | MIC (clinical MRSA isolates; MRSA, strain 31225, in broth): 1 µg/mL | MIC (clinical MRSA isolates; MRSA, strain 31258, in broth): 1 µg/mL | MIC (clinical MRSA isolates; MRSA, strain CA347, in broth): 2 µg/mL | MIC (clinical MRSA isolates; MRSA, strain CA513, in broth): 4 µg/mL | MIC (clinical MRSA isolates; MRSA, strain CA-409, in broth): 2 µg/mL | MIC (clinical MRSA isolates; MRSA, strain CO-34, in broth): 2 µg/mL | MIC (clinical MRSA isolates; MRSA, strain GA442, in broth): 4 µg/mL | MIC (clinical MRSA isolates; MRSA, strain HFH30364, in broth): 2 µg/mL | MIC (clinical MRSA isolates; MRSA, strain HFH30522, in broth): 1 µg/mL | MIC (clinical MRSA isolates; MRSA, strain N315, in broth): 2 µg/mL | MIC (clinical MRSA isolates; MRSA, strain SAEH06, in broth): 0.5 µg/mL | reduction in viable cells (S. aureus ATCC 33591; 0.5× MIC): negligible differences between the vehicle control and the treatment groups | time needed for a 2-log reduction in CFUs (S. aureus ATCC 33591; 1× and 2× MIC): 8 hours | time until viable cell counts dropped below the detection limit (S. aureus ATCC 33591; 2× MIC): more than 8 h | viable cells at 18 and 24 h post-administration (S. aureus ATCC 33591; 2× MIC): no viable cells | MIC ([2]; Staphylococcus aureus): 2 µg/mL

daptomycin
effect on bacterial load at the lesion site ([5]; 25 mg/kg i.v. dose, same experimental conditions, data not shown): no impact on the bacterial load

mutacin 1140 [Mu1140]
Group mean (±SE) of log CFU/infection site [1]: 5.23 log CFU/infection site and 5.23 ± 0.93 log CFU/infection site | log reduction in CFUs (mean difference to vehicle control) ([3]; 25 mg/kg/day subq): 0.78 log | survival at 12 h post-infection [4]: 100% | survival at 24 h post-infection [4]: 83.3% | effect on bacterial load at the skin lesion site [5, 7]: statistically significant reduction in CFUs | mean difference in bacteria load to the vehicle control group ([5]; 10 mg/kg/day i.v. for 5 days, Cohen's d = 1.27, p = 0.0265): 0.61 log CFU | bacteria count at the lesion ([5]; 10 mg/kg/day i.v. twice daily for 5 days from 48 h post-infection, n = 8, vehicle control 7.82): 7.21 log CFU | MIC ([2]; MRSA 33591, in broth): 0.5 µg/mL | MIC compared to fusidic acid and linezolid ([2]; S. aureus 33591): two-fold lower | MIC compared to vancomycin ([2]; S. aureus 33591): four-fold lower
